Like-named read-outs stand apart in the source and are kept apart here. Where only a bound is given, the exact number is not on record here.

Data on 24 molecules can be found in patent US10538516B2, “Oxadiazole derivative and pharmaceutical containing same” (National Center for Geriatrics and Gerontology, priority 2015, dated 2020).

The assay has as its target T1, GAβ-dependent amyloid fibril formation (Human Aβ1-40 + GM1-containing liposome) (Homo sapiens, UniProt P05067).
T1 construct: Human Aβ1-40 (cat. #4307-v, prepared by Peptide Institute); purchased Peptide Institute 4307-v
Nature of the assay: Thioflavin T (ThT) assay of GAβ-dependent amyloid fibril formation (Aβ1-40 with GM1-containing liposome). Type of assay: biochemical. The method, then: <3. Evaluation of the Compounds Based on the Inhibitory Activity Against Amyloid Fibril Formation in Thioflabin T (ThT) Assay>
Inhibitory activity against GAβ-dependent amyloid fibril formation of the above compounds 1 to 133 and 142 to 267 were evaluated in ThT assay.
(1) Preparation of Aβ Solution
Human Aβ1-40 (cat. #4307-v, prepared by Peptide Institute) was dissolved in a 0.02% ammonia solution (400 μM), and the mixture was treated in an ultracentrifuge (S110AT rotor, Hitachi) at 100,000 rpm for 3 hours. Approximately two-thirds of the upper layer of the supernatant was recovered and protein concentration was measured. The Aβ solution was aliquoted and stored at −80° C. until use, was melted immediately before use, and was diluted to 75 μM using phosphate buffer (PBS: cat. #10010, manufactured by Life Technologies).
(2) Preparation of GM1-Containing Liposome
Using a mixed solution of chloroform/methanol (1:1) as a solvent, a mixed solution of 100 mM each of cholesterol and sphingomyelin (both manufactured by Sigma-Aldrich) was prepared. To this mixed solution, GM 1 (cat. #1061, manufactured by Matreya Co.) was dissolved to make a solution of 50 mM concentration. This lipid mixed solution was aliquoted into glass test tubes and stored at −20° C. until use, was melted before use, was mixed with chloroform/methanol mixture (1:1) and mixed, and then the solvent was removed by applying nitrogen gas to the suspension. The dried lipid mixture was resuspended in PBS to be a GM1 concentration of 2.5 mM, and frozen and thawed 5 times with liquid nitrogen. The lipid suspension was centrifuged at 15,000 rpm for 10 minutes and the precipitate was resuspended in PBS to be a GM1 concentration of 2.5 mM. Using an ultrasonic crusher (XL-2000, MISONIX Co., Ltd.) equipped with a microchip, ultrasonic treatment was repeated on ice for 10 seconds until the suspension became transparent, and GM1-containing liposome was prepared. Immediately prior to use, PBS was added and diluted to a GM 1 concentration of 75 μM.
(3) Preparation of Compound Solution
Compounds 1 to 133 and 142 to 267 were prepared as 10 mM and 2 mM solution in DMSO, respectively. And each solution was diluted to 75 μM or 15 μM with PBS immediately prior to use.
(4) GAβ-Dependent Amyloid Fibril Formation
To a 96-well microplate, 5 μl each of the 75 μM Aβ solution prepared above (1), the compound solution prepared in (3) or 0.75% DMSO was mixed and incubated at room temperature for 10 minutes. Then, 5 μl each of 750 μM GM1-containing liposome prepared in (2) was added to each well and incubated at 37° C. for 18 hours.
ThT (manufactured by Sigma-Aldrich) was adjusted to 5 μM using 50 mM glycine-NaOH buffer (pH 8.5). Immediately before measurement, 10 μl from each well of (4) was transferred to a 96-well black plate. 50 μl of 5 μM ThT solution was added from each injector to each well using a multi-plate reader (ARVO-HTS, manufactured by Perkin Elmer), and then the optimal fluorescence of ThT bound to amyloid fiber (excitation wavelength 430 nm, fluorescence wavelength 490 nm) was measured.
The fluorescence intensity of ThT indicates the degree of amyloid fibrils formation. By calculating the ratio of the ThT fluorescence intensity between addition of the compound and without addition of the compound, the inhibition rate against amyloid fibril formation by the compound was calculated.

The mark [1] stands for this setting: inhibition rate against amyloid fibril formation, final concentration of the compound 25 μM, read-out: Inhibitory activity ABC evaluation.
Where [2] appears, read: read-out: ThT Inhibitory activity (% inhibition).
Where [3] appears, read: @25 μM, read-out: ThT Inhibitory activity (% inhibition).

T1 sequence (P05067 672-711 limits assumed): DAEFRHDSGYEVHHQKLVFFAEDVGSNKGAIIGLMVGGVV

In the case of `O=C(c1cccc(Cl)c1)N1C[C@H](O)C[C@H]1c1nc(-c2ccc(OC(F)(F)F)cc2)no1` [Compound 58, (3-chlorophenyl) ((2S,4R)-4-hydroxy-2-[3-{4-(trifluoro-methoxy)phenyl}-1,2,4-oxadiazol-5-yl]pyrrolidin-1-yl)methanone], the inhibition at 25 µM under setting [1] is 40 to 80%. In the case of `O=C1CC(c2nc(-c3ccc(Cl)cc3)no2)CN1c1ccc(Cl)cc1` (centres unmarked) [Compound 59, 1-(4-chlorophenyl)-4-{3-(4-chlorophenyl)-1,2,4-oxadiazol-5-yl}pyrrolidin-2-one], under setting [1], the inhibition at 25 µM was below 40%.

On to `O=C(c1ccc(Cl)cn1)N1C[C@H](O)C[C@H]1c1nc(-c2ccc(OC(F)(F)F)cc2)no1` [Compound 60, (5-chloropyridin-2-yl)((2S,4R)-4-hydroxy-2-[3-{4-(trifluoro-methoxy)phenyl}-1,2,4-oxadiazol-5-yl]pyrrolidin-1-yl)methanone], for which, under setting [1], the inhibition at 25 µM is below 40%. For `O=C1CC(c2nc(-c3ccc(F)cc3)no2)CN1c1ccc(Cl)cc1` (centres unmarked) [Compound 61, 1-(4-chlorophenyl)-4-{3-(4-fluorophenyl)-1,2,4-oxadiazol-5-yl} pyrrolidin-2-one], the inhibition at 25 µM under setting [1] was in the range of 40 to 80%. On the same count and under the same terms, the value for `O=C1CC(c2nc(-c3ccc(OC(F)F)cc3)no2)CN1c1ccc(Cl)cn1` (centres unmarked) [Compound 62, 1-(5-chloropyridin-2-yl)-4-{3-[4-(difluoromethoxy)phenyl]-1,2,4-oxadiazol-5-yl}pyrrolidin-2-one] was 40 to 80%.

As for `O=C(N[C@@H](CO)c1nc(-c2ccc(OC(F)(F)F)cc2)no1)c1cccc(Cl)c1` [Compound 63, (S)-3-chloro-N-(2-hydroxy-1-[3-{4-(trifluoro-methoxy)phenyl}-1,2,4-oxadiazol-5-yl]ethyl) benzamide], the inhibition at 5 µM under setting [2] came out at 53%. Also, the inhibition at 25 µM by setting is: under setting [3], 99%; under setting [1], above 80%. For the molecule `O=C1CC(c2nc(-c3ccc(OC(F)(F)F)cc3)no2)CN1Cc1ccc(Cl)cc1` (centres unmarked) [Compound 64, 1-(4-chlorobenzyl)-4-{3-[4-(trifluoromethoxy)phenyl]-1,2,4-oxadiazol-5-yl}pyrrolidin-2-one], the inhibition at 25 µM under setting [1] was in the range of 40 to 80%. `CS(=O)(=O)Nc1ccc(-c2noc(C3CC(=O)N(c4ccc(Cl)cc4)C3)n2)cc1` (centres unmarked) [Compound 65, N-(4-[5-{1-(4-chlorophenyl)-5-oxopyrrolidin-3-yl}-1,2,4-oxadiazol-3-yl]phenyl) methane-sulfonamide]: the inhibition at 25 µM under setting [1] lay within 40 to 80%. Turning to `O=C1CC(c2nc(-c3cccc(OC(F)F)c3)no2)CN1c1ccc(Cl)cc1` (centres unmarked) [Compound 66, 1-(4-chlorophenyl)-4-[3-{3-(difluoro-methoxy)phenyl}-1,2,4-oxadiazol-5-yl]pyrrolidin-2-one], the inhibition at 25 µM under setting [1] fell in the range of 40 to 80%.

Regarding `O=C1CC(c2nc(-c3ccccc3OC(F)(F)F)no2)CN1c1ccc(Cl)cc1` (centres unmarked) [Compound 67, 1-(4-chloro-phenyl)-4-[3-{2-(trifluoro-methoxy)phenyl}-1,2,4-oxadiazol-5-yl]pyrrolidin-2-one], the inhibition at 25 µM under setting [1] lay in the range of 40 to 80%. On the same count and under the same terms, the value for `O=C(c1ccc(Cl)cc1)N1CC(c2nc(-c3ccc(OC(F)(F)F)cc3)no2)C1` [Compound 68, (4-chloro-phenyl)(3-[3-{4-(trifluoro-methoxy)phenyl}-1,2,4-oxadiazol-5-yl]azetidin-1-yl)methanone] was 40 to 80%.

Take `O=C(N[C@@H](CO)c1nc(-c2ccc(OC(F)(F)F)cc2)no1)c1ccc(F)cc1` [Compound 69, (S)-4-fluoro-N-(2-hydroxy-1-[3-{4-(trifluoro-methoxy)phenyl}-1,2,4-oxadiazol-5-yl]ethyl) benzamide]: the inhibition at 25 µM is 87% under setting [3] and above 80% under setting [1].

In the case of `COc1cccc2c(CC(=O)NCCc3nc(-c4c[nH]c5ccccc45)no3)c[nH]c12` [Compound 70, N-[2-{3-(1H-indol-3-yl)-1,2,4-oxadiazol-5-yl}ethyl]-2-(7-methoxy-1H-indol-3-yl) acetamide], the inhibition at 25 µM under setting [1] is below 40%. On the same count and under the same terms, the value for `O=C(NCCc1nc(-c2c[nH]c3ccccc23)no1)c1ccc(Cl)cc1` [Compound 71, N-[2-{3-(1H-indol-3-yl)-1,2,4-oxadiazol-5-yl}ethyl]-4-chloro-benzamide] was 40 to 80%. With `O=C1CC(CO)(c2nc(-c3ccc(O)cc3)no2)CN1c1ccc(Cl)cc1` (centres unmarked) [Compound 72, 1-(4-chloro-phenyl)-4-(hydroxy-methyl)-4-{3-(4-hydroxyphenyl)-1,2,4-oxadiazol-5-yl} pyrrolidin-2-one], the inhibition at 5 µM under setting [2] was found to be 47%. The inhibition at 25 µM by setting is: under setting [3], 81%; under setting [1], above 80%. For `O=C1CC(CO)(c2nc(-c3ccc4c(c3)OC(F)(F)O4)no2)CN1c1ccc(Cl)cc1` (centres unmarked) [Compound 73, 1-(4-chlorophenyl)-4-[3-(2,2-difluorobenzo[d][1,3]dioxol-5-yl)-1,2,4-oxadiazol-5-yl]-4-(hydroxymethyl)pyrrolidin-2-one], the inhibition at 25 µM under setting [1] is above 80%. Take `O=C1CC(c2nc(-c3ccc(O)c(F)c3)no2)CN1c1ccc(Cl)cc1` (centres unmarked) [Compound 74, 1-(4-chloro-phenyl)-4-{3-(3-fluoro-4-hydroxyphenyl)-1,2,4-oxadiazol-5-yl}pyrrolidin-2-one]: the inhibition at 25 µM under setting [1] lay within 40 to 80%.

Consider `O=C(N[C@@H](CCO)c1nc(-c2ccc(OC(F)(F)F)cc2)no1)c1ccc(Cl)cc1` [Compound 75, (S)-4-chloro-N-(3-hydroxy-1-[3-{4-(trifluoro-methoxy)phenyl}-1,2,4-oxadiazol-5-yl]propyl) benzamide], for which, under setting [1], the inhibition at 25 µM was 40 to 80%. Regarding `O=C(N[C@@H](CO)c1nc(-c2ccc(OC(F)(F)F)cc2)no1)c1c[nH]c2cc(Cl)ccc12` [Compound 76, (S)-6-chloro-N-(2-hydroxy-1-[3-{4-(trifluoro-methoxy)phenyl}-1,2,4-oxadiazol-5-yl}ethyl)-1H-indole-3-carboxamide], the inhibition at 25 µM under setting [1] is 40 to 80%.

Regarding `O[C@@H]1C[C@@H](c2nc(-c3ccc(OC(F)(F)F)cc3)no2)N(Cc2ccc(Cl)cc2)C1` [Compound 77, (3R,5S)-1-(4-chlorobenzyl)-5-[3-{4-(trifluoro-methoxy)phenyl}-1,2,4-oxadiazol-5-yl]pyrrolidin-3-ol], the inhibition at 25 µM under setting [1] lay within 40 to 80%.

With `O=C(NC(CO)c1nc(-c2ccc(O)cc2)no1)c1ccc(Cl)cc1` (centres unmarked) [Compound 78, 4-chloro-N-{2-hydroxy-1-[3-(4-hydroxyphenyl)-1,2,4-oxadiazol-5-yl]ethyl}benzamide], the inhibition at 5 µM under setting [2] was 52%. Also, the inhibition at 25 µM under setting [3] came out at 89% and the inhibition at 25 µM under setting [1] was above 80%.

Consider `N#Cc1ccc(N2CC(c3nc(-c4ccc(O)cc4)no3)CC2=O)cc1` (centres unmarked) [Compound 79, 4-[4-{3-(4-hydroxyphenyl)-1,2,4-oxadiazol-5-yl}-2-oxopyrrolidin-1-yl]benzonitrile], for which the inhibition at 25 µM under setting [1] was below 40%. In the case of `C[C@@H](O)[C@H](NC(=O)c1ccc(Cl)cc1)c1nc(-c2ccc(OC(F)(F)F)cc2)no1` [Compound 80, 4-chloro-N-((1S,2R)-2-hydroxy-1-[3-{4-(trifluoro-methoxy)phenyl}-1,2,4-oxadiazol-5-yl]propyl) benzamide], the inhibition at 25 µM reads like this: under setting [3], 80%; under setting [1], above 80%. Take `O=C(O)C[C@H](NC(=O)c1ccc(Cl)cc1)c1nc(-c2ccc(OC(F)(F)F)cc2)no1` [Compound 81, (S)-3-(4-chlorobenzamide)-3-{3-[4-(trifluoromethoxy)phenyl]-1,2,4-oxadiazol-5-yl}propanoic acid]: under setting [1], the inhibition at 25 µM is 40 to 80%.
